This is an account of results in US9718760B2, “Plasminogen activator inhibitor-1 inhibitors and methods of use thereof” (THE REGENTS OF THE UNIVERSITY OF MICHIGAN, priority 2012, dated 2017).

“And” between values parts separate entries of the source, which are not always exact repeats. Identical values can stand only once.

The target of test [1] is T1, recombinant active human PAI-1 (Homo sapiens (Human), UniProt P05121). Kind of test: Fluorometric PAI-1/uPA IC50 plate assay at pH 7.8. The note with it: physiologic buffer. It is filed as biochemical. The protocol:
To determine the efficacy of various synthesized compounds as PAI-1 inhibitors at pH 7.8, additional fluorometric plate assays were carried out to measure the half maximal inhibitory concentration (IC50) of these compounds on recombinant active human PAI-1 in vitro.
PAI-1 inhibitor compounds were dissolved in DMSO to a final concentration of (10-50 mM), depending upon solubility. […] Fluorescence, as a measure of the rate of AMC release by uPA, was read at the following wavelengths; excitation 370 nm, emission 440 nm. Controls included PAI-1 and uPA in the absence of compound and uPA alone. Percent PAI-1 inhibition was calculated using the following formula: [(uPA alone-uPA/PAI-1+ compound)/(uPA alone-PAI-1/uPA)]*100%. The IC50 was calculated using Graphit (IC50 0-100%).

For test [2], the target named is T1, recombinant active human PAI-1. Kind of test: Fluorometric PAI-1/uPA IC50 plate assay at pH 7.4. The format is biochemical. As to the method:
To determine the efficacy of various synthesized compounds as PAI-1 inhibitors, a fluorometric plate assay was carried out to measure the half maximal inhibitory concentration (IC50) of these compounds on recombinant active human PAI-1 in vitro. An IC50 is a measure of the effectiveness of a compound in inhibiting biological or biochemical function. Stated another way, IC50 represents the concentration of a drug that is required for 50% inhibition in vitro.
PAI-1 inhibitor compounds were dissolved in DMSO to a final concentration of (10-50 mM), depending upon solubility. Compounds were then diluted in physiologic buffer (40 mM HEPES, 100 mM NaCl, 0.05% Tween-20, pH7.4) containing 10% DMSO and a dilution series (from 0 to 1000 uM depending on solubility) was prepared. 80 μL of compound was added per well to a 96-well black, opaque microplate in duplicate. 10 μL of 20 nM Recombinant active human PAI-1 (Molecular Innovations) in physiologic buffer (40 mM HEPES, 100 mM NaCl, 0.05% Tween-20, 10% DMSO, pH 7.4), or […] physiologic buffer with 10% human plasma, was added and the mixture was agitated for 15 minutes at room temperature. 10 μL of 25 nM uPA (Rheotromb®) was added to each reaction well and the plate was agitated for an additional 30 minutes at room temperature. Tripeptide aminomethylcoumarin Gly-Gly-Arg-AMC (Calbiochem) fluorogenic substrate (100 μL of 100 μM) was then added and residual uPA activity was determined based upon cleavage of this substrate. The rate of AMC release by uPA (fluorescence) was measured at an excitation wavelength of 370 nm and an emission wavelength of 440 nm. Controls included PAI-1 and uPA in the absence of compound and uPA alone. Percent PAI-1 inhibition was calculated using the following formula: [(uPA alone-uPA/PAI-1+ compound)/(uPA alone-PAI-1/uPA)]*100%. The IC50 was calculated using Graphit (IC50 0-100%).

Where [3] appears, read: physiologic buffer (40 mM HEPES, 100 mM NaCl, 0.05% Tween-20, 10% DMSO), read-out: PAI-1/uPA IC50 in buffer.
[4] abbreviates: physiologic buffer with 1.5% BSA (15 mg/mL), read-out: PAI-1/uPA IC50 in 1.5% BSA buffer.
[5] abbreviates: physiologic buffer with 10% human plasma, read-out: PAI-1/uPA IC50 in 10% plasma buffer.

T1 sequence (P05121 24-402): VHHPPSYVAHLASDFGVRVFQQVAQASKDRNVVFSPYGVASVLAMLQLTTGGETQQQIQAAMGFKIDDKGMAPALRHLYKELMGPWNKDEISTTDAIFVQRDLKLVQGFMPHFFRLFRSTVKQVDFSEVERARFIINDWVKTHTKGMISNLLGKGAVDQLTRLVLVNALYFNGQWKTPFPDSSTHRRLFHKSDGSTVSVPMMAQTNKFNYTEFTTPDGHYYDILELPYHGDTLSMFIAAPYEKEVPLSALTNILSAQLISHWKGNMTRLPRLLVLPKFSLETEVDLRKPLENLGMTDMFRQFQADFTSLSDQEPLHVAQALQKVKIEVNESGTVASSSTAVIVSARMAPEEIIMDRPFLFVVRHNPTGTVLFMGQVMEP

Consider `O=C(O)[C@@H](Cc1ccccc1)NS(=O)(=O)c1ccc(O)c(O)c1` [C275], for which the IC50 in test [1] was 30.5 µM.
Regarding `O=C(OCC(CNS(=O)(=O)c1cccc(C(F)(F)F)c1)OC(=O)c1ccc(O)c(O)c1)c1ccc(O)c(O)c1` (stereo not shown) [C204], in test [1], the IC50 amounted to 0.035 µM.
For the compound `CCCCCCCCCCN(CCN(C)S(=O)(=O)c1ccc(O)c(O)c1)S(=O)(=O)c1ccc(O)c(O)c1` [C196], in test [1], the IC50 stood at 0.45 µM.
For `NC(=O)[C@H](Cc1ccccc1)NS(=O)(=O)c1ccc(O)c(O)c1` [C270], the IC50 in test [1] was determined as 29.5 µM.
Take `CCCCCCCCCCN(CCN(CCCCCCCCCC)S(=O)(=O)c1ccc(O)c(O)c1)S(=O)(=O)c1ccc(O)c(O)c1` [C168]: the IC50 in test [1] was found to be 1.98 µM.
As to `CCCCCCCN(S(=O)(=O)c1ccc(O)c(O)c1)S(=O)(=O)c1ccc(O)c(O)c1` [C182], the IC50 in test [1] is 0.033 µM.
As for `O=S(=O)(c1ccc(O)c(O)c1)N1CCC[C@H]1CCc1ccccc1` [C186], the IC50 in test [1] was found to be 6.98 µM.
For `CC(C)(C)n1nc(C2CC2)nc1Cc1ccc(O)c(O)c1` [C221], the IC50 in test [1] is 1610 µM.
As for `CCCCCCN(CCCCCC)S(=O)(=O)c1ccc(O)c(O)c1` [C171], the IC50 in test [1] worked out at 1.67 µM.
Consider `O=S(=O)(NCCc1ccc(O)c(O)c1)c1ccc(O)c(O)c1` [C198], for which the IC50 in test [1] turned out to be 0.051 µM.
In the case of `CCCCCCCCN(S(=O)(=O)c1ccc(CCCCC)cc1)S(=O)(=O)c1ccc(O)c(O)c1` [C191], the IC50 in test [1] stood at 1.28 µM.
For `CCCCCCCCN(CC(O)c1ccccc1)S(=O)(=O)c1ccc(O)c(O)c1` (stereo not shown) [C175], the IC50 in test [1] was 6.74 µM.
For the compound `O=C(O)CCCCNS(=O)(=O)c1ccc(O)c(O)c1` [C249], the IC50 in test [1] is 663 µM.
For `CCCCCCCCN(CCN(CCCCCCCC)S(=O)(=O)c1ccc(O)c(O)c1)S(=O)(=O)c1ccc(O)c(O)c1` [C176], the IC50 in test [1] turned out to be 0.62 µM.
Consider `CC(C)(C)n1nc(-c2ccc(O)cc2)nc1Cc1ccc(O)c(O)c1` [C222], for which the IC50 in test [1] was found to be 236 µM.
Take `O=S(=O)(Nc1ccc(-c2cccc(F)c2)cc1)c1ccc(O)c(O)c1` [C190]: the IC50 in test [1] is 9.7 µM.
For `CCCCCCCCN(Cc1cccc(Cl)c1)S(=O)(=O)c1ccc(O)c(O)c1` [C177], the IC50 in test [1] is 5.11 µM.
In the case of `CC(C)(C)n1nc(-c2ccccc2)nc1Cc1ccc(O)c(O)c1` [C208], the IC50 in test [1] is 77.2 µM.
`CCCCCc1nc(Cc2ccc(O)c(O)c2)n(C(C)(C)C)n1` [C220]: the IC50 in test [1] is 116 µM.
On to `O=C(OCCOC(=O)c1ccc(O)c(O)c1)c1cc(O)cc(O)c1` [C236], for which the IC50 in test [1] is 174 µM.
In the case of `CCCCCCCCN(CCCCCC)S(=O)(=O)c1ccc(O)c(O)c1` [C180], the IC50 in test [1] amounted to 1.34 µM.
For the compound `O=S(=O)(NCCc1ccc(O)c(O)c1)c1ccccc1` [C210], the IC50 in test [1] came out at 190 µM.
Turning to `CCCCCc1nc(Cc2ccc(O)c(O)c2)n(C(C)(C)C)n1` [C223], the IC50 in test [1] amounted to 125 µM.
Consider `CCCCCCCCN(S(=O)(=O)c1ccc(O)cc1)S(=O)(=O)c1ccc(O)c(O)c1` [C224], for which the IC50 in test [1] was 4.34 µM.
For `CCCCCCCCN(Cc1cc(Cl)c(O)c(Cl)c1)S(=O)(=O)c1ccc(O)c(O)c1` [C172], the IC50 in test [1] stood at 1.98 µM.
Still for that read-out and setting: in the case of `O=C(O)CCCCCNS(=O)(=O)c1ccc(O)c(O)c1` [C271] it was 1.82 µM.
Take `CCCCCCc1ccc(NS(=O)(=O)c2ccc(O)c(O)c2)cc1` [C187]: the IC50 in test [1] was 0.91 µM.
On the same count and under the same terms, in the case of `CCCCCCCCN(Cc1cccc(C(F)(F)F)c1)S(=O)(=O)c1ccc(O)c(O)c1` [C179] it was 2.4 µM; in that of `O=C(O)[C@H](NS(=O)(=O)c1ccc(O)c(O)c1)c1ccccc1` [C274], 73.6 µM.
As for `O=C1S/C(=C\c2ccc(O)c(O)c2)C(=O)N1Cc1ccccc1` [C199], in test [1], the IC50 came to 5.36 µM.
Same read-out and setting: in the case of `O=S(=O)(NCCc1ccccc1)c1ccc(O)c(O)c1` [C233] it was 74.8 µM; in that of `CCCCN(C)C(=O)CSc1ccc(O)c(O)c1` [C200], 58.4 µM.
Take `O=S(=O)(c1ccccc1)N(CCc1ccc(O)c(O)c1)S(=O)(=O)c1ccc(O)c(O)c1` [C197]: the IC50 in test [1] was found to be 0.173 µM.
Take `NNC(=O)C(=O)NCc1cccc(C(F)(F)F)c1` [C297]: the IC50 was 136 µM in test [2] (setting [3]), 111 µM in test [2] (setting [4]) and 87 µM in test [2] (setting [5]).
Take `Cc1cc(CNC(=O)CCc2ccc(O)c(O)c2)ccc1F` [C358]: the IC50 in test [2] (setting [3]) is 1500 µM; in test [2] (setting [4]) it was 1230 µM; in test [2] (setting [5]), 619 µM.
The corresponding values for `NNC(=O)C(=O)NCc1cccc(Cl)c1Cl` [C301] are 173 µM, 128 µM and 106 µM.
`O=C(CCc1ccc(O)c(O)c1)NCc1cccc(OC(F)(F)F)c1` [C357]: the IC50 is 1370 µM in test [2] (setting [3]), 1230 µM in test [2] (setting [4]) and 567 µM in test [2] (setting [5]).
For `CCCCCCc1ccc(N(S(=O)(=O)c2ccc(CCC)cc2)S(=O)(=O)c2ccc(O)c(O)c2)cc1` [C189], in test [1], the IC50 was found to be 2.29 µM.
Turning to `CCCCCCCCCN(CCN(CCCCCCCCC)S(=O)(=O)c1ccc(O)c(O)c1)S(=O)(=O)c1ccc(O)c(O)c1` [C185], the IC50 in test [1] stood at 0.42 µM.
With `CCCCCCCCN(CCCCCCCC)S(=O)(=O)c1ccc(O)c(O)c1` [C170], the IC50 in test [1] was 5.49 µM.
In the case of `O=C(Nc1ccccc1)[C@@H]1CCCN1S(=O)(=O)c1ccc(O)c(O)c1` [C193], the IC50 in test [1] was 552 µM.
As to `NNC(=O)C(=O)NCc1ccc(Cl)cc1F` [C307], the IC50 in test [2] (setting [3]) was 465 µM; in test [2] (setting [4]) it was 99 µM; in test [2] (setting [5]), 101 µM.
Take `Cc1ccc(CNC(=O)C(=O)NN)cc1F` [C305]: the IC50 in test [2] (setting [3]) came to 224 µM; in test [2] (setting [4]), 81 µM; in test [2] (setting [5]) it was 62 µM.
On to `O=C(O)[C@H](Cc1ccccc1)NS(=O)(=O)c1ccc(O)c(O)c1` [C272], for which the IC50 in test [1] came to 16.4 µM.
Consider `COC(=O)CCC(=O)NCc1cccc(C(F)(F)F)c1` [C288], for which the IC50 in test [2] (setting [3]) was 2910 µM; in test [2] (setting [4]), 1060 µM; in test [2] (setting [5]) it was 752 µM.
The corresponding values for `O=C(CCc1ccc(O)c(O)c1)NCc1ccc(C(F)(F)F)cc1` [C345] are 1470 µM, 673 µM and 539 µM.
`CC(C)(C)n1nc(-c2ccccc2)nc1-c1ccc(O)c(O)c1` [C201, 4-(1-(tert-butyl)-3-phenyl-1H-1,2,4-triazol-5-yl)benzene-1,2-diol]: the IC50 in test [1] was 181 µM.
As to `CCCCCCCCCCCCc1ccc(N(S(=O)(=O)c2ccc(O)c(O)c2)S(=O)(=O)c2ccc(O)c(O)c2)cc1` [C195], the IC50 in test [1] came out at 0.92 µM.
Consider `NNC(=O)C(=O)NCc1ccc(F)c(C(F)(F)F)c1` [C261], for which the IC50 is 102 µM and 103 µM in test [2] (setting [3]); 68 µM and 86 µM in test [2] (setting [4]); 69 µM in test [2] (setting [5]).
For `NNC(=O)C(=O)NCc1cccc(F)c1` [C264], the IC50 in test [2] (setting [3]) worked out at 2120 µM; in test [2] (setting [4]), 1180 µM; in test [2] (setting [5]) it was 1250 µM.
For the compound `NNC(=O)CCC(=O)NCc1ccc(Cl)c(C(F)(F)F)c1` [C278], the IC50 in test [2] (setting [3]) was 640 µM and 642 µM; in test [2] (setting [4]) it was 118 µM and 130 µM; in test [2] (setting [5]), 142 µM.
As for `Cc1ccc(CNC(=O)c2n[nH]c(=O)o2)cc1F` [C306], the IC50 in test [2] (setting [3]) amounted to 1160 µM; in test [2] (setting [4]) it was 403 µM; in test [2] (setting [5]) it was 405 µM.
On to `O=C(NO)NCc1ccc(Cl)c(C(F)(F)F)c1` [C284, 1-(4-chloro-3-(trifluoromethyl)benzyl)-3-hydroxyurea], for which the IC50 in test [2] (setting [3]) was found to be 2480 µM.
In the case of `Cc1cc(C(=O)NCc2ccc(Cl)c(C(F)(F)F)c2)no1` [C286], the IC50 in test [2] (setting [3]) amounted to 580 µM.
For the compound `NNC(=O)C(=O)NCc1ccc(F)cc1` [C248], the IC50 in test [2] (setting [3]) is 1190 µM and 1310 µM; in test [2] (setting [4]), 652 µM and 646 µM; in test [2] (setting [5]), 478 µM.
For `COc1ccc(CCNC(=O)C(=O)NN)cc1OC` [C246], in test [2] (setting [3]), the IC50 was 2560 µM.
`Cc1ccc(F)cc1CNC(=O)C(=O)NN` [C341]: the IC50 worked out at 900 µM in test [2] (setting [3]), 1460 µM in test [2] (setting [4]) and 1870 µM in test [2] (setting [5]).
